Patent publication US10669268B2, “Bicyclic derivatives” (Hoffmann-La Roche Inc., priority 2012, dated 2020)

Molecular target: ATX (human His-tagged) (Homo sapiens (Human), UniProt Q13822)
Experiment: Human ATX enzyme inhibition assay (fluorescence quenching, MR121 substrate)
Assay type: biochemical
Details: 30 nM ATX, 1 μM MR121 substrate, 30° C., pH 8.0
In short: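 Fluorescence-quenching assay using MR121 substrate at 1 μM final, incubated 15 min at 30 °C. Buffer was 50 mM Tris-HCl pH 8.0 with 140 mM NaCl, 5 mM KCl, 1 mM CaCl2, 1 mM MgCl2 and 0.01% Triton X-100.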

Row | IC50 | Structure (SMILES)
1 | 398 nM | O=C(OCCC1C2CC3CC(C2)CC1C3)N1C[C@@H]2CN(C(=O)c3ccc4[nH]nnc4c3)C[C@@H]2C1 (stereo partly drawn) [Example 4.16, (3aS,6aR)-5-(1H-benzotriazole-5-carbonyl)-hexahydro-pyrrolo[3,4-c]pyrrole-2-carboxylic acid 2-adamantan-2-yl-ethyl ester]
2 | 21 nM | Cc1ccc(/C=C/C(=O)N2CC[C@@H]3CN(C(=O)c4ccc5[nH]nnc5c4)C[C@@H]3CC2)cc1 [Example 15.07]
3 | 5620 nM | O=C(OCC12CC3CC(CC(C3)C1)C2)N1C[C@@H]2CN(C(=O)c3ccc4[nH]nnc4c3)C[C@@H]2C1 [Example 4.18, (3aS,6aR)-5-(1H-benzotriazole-5-carbonyl)-hexahydro-pyrrolo[3,4-c]pyrrole-2-carboxylic acid adamantan-1-ylmethyl ester]
4 | 7 nM | NS(=O)(=O)C1CCN(C(=O)N2C[C@H]3CN(C(=O)OCc4ccc(OC(F)(F)F)cc4)C[C@@H]3C2)CC1 [Example 9.10]
5 | 1380 nM | O=C(OCCC1CCCCC1)N1C[C@@H]2CN(C(=O)c3ccc4[nH]nnc4c3)C[C@@H]2C1 [Example 4.22, (3aR,6aS)-2-cyclohexylethyl 5-(1H-benzo[d][1,2,3]triazole-5-carbonyl)hexahydropyrrolo[3,4-c]pyrrole-2(1H)-carboxylate]
6 | 685 nM | O=C(c1cnc(OCC2CC2)c(Br)c1)N1C[C@@H]2CN(C(=O)c3ccc4[nH]nnc4c3)C[C@H]2C1 [Example 19.41, ((3aS,6aS)-5-(1H-benzo[d][1,2,3]triazole-5-carbonyl)hexahydropyrrolo[3,4-c]pyrrol-2(1H)-yl)(5-bromo-6-(cyclopropylmethoxy)pyridin-3-yl)methanone]
7 | 249 nM | O=C(COc1ccccc1-n1cccc1)N1C[C@@H]2CN(C(=O)c3ccc4[nH]nnc4c3)C[C@H]2C1 [Example 15.92]
8 | 5 nM | O=C(/C=C/c1ccc(OC(F)(F)F)cc1F)N1CC[C@@H]2CN(C(=O)c3ccc4[nH]nnc4c3)C[C@@H]2CC1 [Example 15.39]
9 | 122 nM | O=C(OCc1cccc(OC(F)(F)F)c1)N1C[C@@H]2CN(C(=O)c3ccc4[nH]nnc4c3)C[C@@H]2C1 [Example 4.25, (3aS,6aR)-5-(1H-benzotriazole-5-carbonyl)-hexahydro-pyrrolo[3,4-c]pyrrole-2-carboxylic acid 3-trifluoromethoxy-benzyl ester]
10 | 3 nM | O=C(CCc1ccc(-c2ccccc2)cc1)N1C[C@@H]2CN(C(=O)c3ccc4[nH]nnc4c3)C[C@H]2C1 [Example 15.65]
11 | 17 nM | O=C(CCc1ccc(OC(F)(F)F)cc1)N1C[C@@H]2CN(C(=O)c3ccc4[nH]nnc4n3)C[C@H]2C1 [Example 1.50, 1-[(3aR,6aR)-5-(1H-triazolo[4,5-b]pyridine-5-carbonyl)-1,3,3a,4,6,6a-hexahydropyrrolo[3,4-c]pyrrol-2-yl]-3-[4-(trifluoromethoxy)phenyl]propan-1-one]
12 | 27 nM | O=C(COc1ccccc1-c1ccccc1)N1C[C@@H]2CN(C(=O)c3ccc4[nH]nnc4c3)C[C@H]2C1 [Example 15.88]
13 | 2 nM | O=C(/C=C/c1ccc(OC(F)(F)F)cc1)N1CC[C@@H]2CN(C(=O)N3CCc4[nH]nnc4C3)C[C@@H]2CC1 [Example 8.01]
14 | 5 nM | O=C(/C=C/c1ccc(C(F)(F)F)cc1)N1C[C@@H]2CN(C(=O)c3ccc4[nH]nnc4c3)C[C@H]2C1 [Example 15.58]
15 | 531 nM | O=C(OCc1cc(Cl)cc(Cl)c1)N1C[C@H]2CN(Cc3ccc4[nH]c(=O)oc4c3)C[C@H]2C1 [Example 6.03]
16 | 26 nM | O=C(/C=C/c1ccc(OC(F)(F)F)cc1)N1C[C@@H]2CN(C(=O)c3ccc4[nH]nnc4c3)C[C@@H]2C1 [Example 15, (E)-1-((3aR,6aS)-5-(1H-Benzo[d][1,2,3]triazole-5-carbonyl)hexahydropyrrolo[3,4-c]pyrrol-2(1H)-yl)-3-(4-(trifluoromethoxy)phenyl)prop-2-en-1-one]
17 | 6 nM | O=C(CCc1ccc(OC(F)(F)F)cc1)N1C[C@@H]2CN(C(=O)c3ccc4[nH]nnc4c3)C[C@H]2C1 [Example 15.44]
18 | 7 nM | O=C(/C=C/N1C[C@@H]2CN(C(=O)[C@@H]3CCc4[nH]nnc4C3)C[C@H]2C1)c1ccc(OC(F)(F)F)cc1 [Example 15.89]
19 | 22 nM | O=C(OCc1ccc(OC(F)(F)F)cc1)N1C[C@@H]2CN(C(=O)c3cc4nn[nH]c4cc3F)C[C@H]2C1 [Example 1.54, (3aS,6aS)-5-(6-fluoro-1H-benzotriazole-5-carbonyl)-hexahydro-pyrrolo[3,4-c]pyrrole-2-carboxylic acid 4-trifluoromethoxy-benzyl ester]
20 | 31 nM | O=C(CCc1ccc(-c2ccccn2)cc1)N1C[C@@H]2CN(C(=O)c3ccc4[nH]nnc4c3)C[C@H]2C1 [Example 17.13, 1-[(3aR,6aR)-5-(1H-benzotriazole-5-carbonyl)-hexahydro-pyrrolo[3,4-c]pyrrol-2-yl]-3-(4-pyridin-2-yl-phenyl)-propan-1-one]
21 | 49 nM | O=C(/C=C/c1cccc(OC(F)(F)F)c1)N1C[C@H]2CCN(C(=O)c3ccc4[nH]nnc4c3)CC[C@H]2C1 [Example 15.20]
22 | 25 nM | O=C(c1ccc2[nH]nnc2c1)N1C[C@H]2CN(C(=O)C3CCN(c4ccc(Cl)cc4)CC3)C[C@@H]2C1 [Example 19.23, [(3aR,6aR)-5-[1-(4-chlorophenyl)piperidine-4-carbonyl]-1,3,3a,4,6,6a-hexahydropyrrolo[3,4-c]pyrrol-2-yl]-(1H-benzotriazol-5-yl)methanone]
23 | 2 nM | O=C(COc1cc(Cl)ccc1C(F)(F)F)N1CC[C@@H]2CN(C(=O)c3ccc4[nH]nnc4c3)C[C@@H]2CC1 [Example 1.41, 1-((3aR,8aS)-2-(1H-benzo[d][1,2,3]triazole-5-carbonyl)octahydropyrrolo[3,4-d]azepin-6(7H)-yl)-2-(5-chloro-2-(trifluoromethyl)phenoxy)ethanone]
24 | 328 nM | N#Cc1ccc(/C=C/C(=O)N2C[C@H]3CCN(C(=O)c4ccc5[nH]nnc5c4)C[C@@H]3C2)cc1 (single isomer, unassigned) [Example 15.33]
25 | 14 nM | O=C(/C=C/c1ccc(Cl)cc1Cl)N1CC[C@@H]2CN(C(=O)c3ccc4[nH]nnc4c3)C[C@@H]2CC1 [Example 15.30]
26 | 103 nM | O=C(COc1ccccc1C(F)(F)F)N1C[C@@H]2CN(C(=O)c3ccc4[nH]nnc4c3)C[C@H]2C1 [Example 15.87]
27 | 4 nM | O=C(OCc1ccc(OC(F)(F)F)c(F)c1)N1C[C@@H]2CN(C(=O)c3ccc4[nH]nnc4c3)C[C@H]2C1 [Example 4.43, (3aS,6aS)-5-(1H-benzotriazole-5-carbonyl)-hexahydro-pyrrolo[3,4-c]pyrrole-2-carboxylic acid 3-fluoro-4-trifluoromethoxy-benzyl ester]
28 | 12 nM | O=C(COc1ccc(OC(F)(F)F)cc1Br)N1C[C@@H]2CN(C(=O)c3ccc4[nH]nnc4c3)C[C@H]2C1 [Example 19.01, 1-[(3aS,6aS)-5-(1H-benzotriazole-5-carbonyl)-hexahydro-pyrrolo[3,4-c]pyrrol-2-yl]-2-(2-bromo-4-trifluoromethoxy-phenoxy)-ethanone]
